From US9222137B2, “Method for monitoring minimal residual hairy cell leukemia” (Trovagene, Inc., priority 2011, dated 2015)
“Also recorded” adds a separate entry of the source.

Tests used:
[1] = tested on: phosphorylated MEK and ERK in purified primary HCL cells (BRAF V600E); assay: Western blot analysis of MEK and ERK phosphorylation in purified HCL cells incubated in vitro with BRAF inhibitor; type: cell-based, human; conditions: primary leukemic HCL cells; 250 nM, 500 nM or 1000 nM (≦1 μM); 2, 6 and 24 h incubation; vs vehicle (DMSO)
Protocol: Fresh leukemic cells purified from the peripheral blood of 5 patients with HCL were seeded in triplicate (2 to 3×10^5 cells/well, depending on the patient) in 96-well flat-bottom plates, and left recovering by overnight incubation at 37° C. and 5% CO2 in cell culture medium (RPMI1640 with 10% fetal bovine serum, glutamine and antibiotics). […] DMSO (the drug vehicle) was added in parallel wells as control. Cells were then harvested at different time points (2 h, 6 h and 24 h), washed 3 times in PBS, lysed in Laemmli sample buffer and boiled at 95° C. for 5 minutes. […] Protein lysates (6 to 7.5×10^4 fresh cell equivalent, depending on the patient; 2×10^5 frozen cell equivalent) were separated by SDS-polyacrylamide gel electrophoresis (SDS-PAGE) on pre-cast electrophoresis gels (12% Resolving gel cat. 456-1043 or Any kD Resolving Gel cat. 456-9036, Biorad), transferred to a 0.45 um pore size nitrocellulose transfer membrane (Whatman GmbH, Dassel, Germany), and probed with specific primary antibodies directly or after stripping (with Restore Western Blot Stripping Buffer, Pierce/Thermo Scientific cat. 21059). The anti-phospho-ERK1/2 (clone D13.14.4E; 1:2000 dilution), anti-phospho-MEK1/2 (clone 166F8; 1:1000 dilution), anti-ERK1/2 (clone 137F5; 1:1000 dilution) rabbit monoclonal antibodies and the anti-MEK1/2 (clone L38C12; 1:1000 dilution) mouse monoclonal antibody were all from Cell Signaling Technology. Upon incubation with horseradish peroxidase-conjugated secondary antibodies (GE Healthcare Lifesciences, Uppsala, Sweden), polypeptides were visualized using an enhanced chemiluminescence (ECL) western blot detection kit according to the manufacturer's instruction (GE Healthcare Lifesciences). Protein lysates (3×10^4 to 2×10^5 cell equivalent, depending on the experiment) from either serum-starved (45 min at 37° C. and 5% CO2 in RPMI1640) or unstarved human leukemic T-cell line Jurkat cells were used as negative and positive control, respectively, for ERK1/2 and MEK1/2 phosphorylation.
Membranes were probed with antibodies against phospho-ERK, phosphoMEK, total ERK and total MEK, as indicated on the far right. Protein lysates from either serum-starved or unstarved human leukemic Jurkat T cell line cells were used as negative (−) and positive (+) control, respectively, for ERK and MEK phosphorylation.

hairy cell leukemia = assay: Case report: index HCL patient treated with pentostatin; type: in vivo, human
Description: Splenomegaly was present. […] At immunohistochemistry, leukemic cells were positive for CD20, DBA44, CD68 and Annexin-A1; expression of CD20, CD11c, CD25 and CD103 was documented by flow cytometry.

| Structure (SMILES) | phosphorylation of ERK (phospho-ERK, Western blot) [1] | phosphorylation of MEK (phospho-MEK, Western blot) [1] | clinical outcome after therapy (hairy cell leukemia) |
| --- | --- | --- | --- |
| CCCS(=O)(=O)Nc1ccc(F)c(C(=O)c2c[nH]c3ncc(Cl)cc23)c1F [PLX-4720] | dose-dependent dephosphorylation; also recorded: marked decrease | dose-dependent dephosphorylation; also recorded: marked decrease |  |
| OC[C@H]1O[C@@H](n2cnc3c2NC=NC[C@H]3O)C[C@@H]1O [pentostatin] |  |  | complete hematological remission |
